Results reported in PubChem BioAssay AID1963830 (Molecular Pharmacology Branch, DTP, NCI, 2024).
pIC50: −log10 of the molar value.

Test system: 922993-354-T-J3-PDC complex spheroid viability
Experiment: Anticancer human tumor 922993-354-T-J3-PDC patient-derived endometrial carcinoma cell line growth inhibition [POLQ]
Details: for pIC50: curve of first compound; for viability, T/C: stronger effect = lower value; active means viability on the fitted dose curve at most 10% of control; inactive means the rest
How it was run: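 Three-cell-type spheroids modelling solid tumor plus stroma served as the readout system; POL inhibitors were tested individually and in combination, concentration ranges set by clinical Cmax where known.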

[1] = second compound 0.0316 µM, first compound 0.0316 µM
[2] = second compound 0.0316 µM, first compound 0.1 µM
[3] = second compound 0.0316 µM, first compound 0.316 µM
[4] = second compound 0.0316 µM, first compound 1 µM
[5] = second compound 0.0316 µM, first compound 3.16 µM
[6] = second compound 0.0316 µM, first compound 10 µM
[7] = second compound 0.1 µM, first compound 0.0316 µM
[8] = second compound 0.1 µM, first compound 0.1 µM
[9] = second compound 0.1 µM, first compound 0.316 µM
[10] = second compound 0.1 µM, first compound 1 µM
[11] = second compound 0.1 µM, first compound 3.16 µM
[12] = second compound 0.1 µM, first compound 10 µM
[13] = second compound 0.316 µM, first compound 0.0316 µM
[14] = second compound 0.316 µM, first compound 0.1 µM
[15] = second compound 0.316 µM, first compound 0.316 µM
[16] = second compound 0.316 µM, first compound 1 µM
[17] = second compound 0.316 µM, first compound 3.16 µM
[18] = second compound 0.316 µM, first compound 10 µM
[19] = second compound 1 µM, first compound 0.0316 µM
[20] = second compound 1 µM, first compound 0.1 µM
[21] = second compound 1 µM, first compound 0.316 µM
[22] = second compound 1 µM, first compound 1 µM
[23] = second compound 1 µM, first compound 3.16 µM
[24] = second compound 1 µM, first compound 10 µM
[25] = second compound 3.16 µM, first compound 0.0316 µM
[26] = second compound 3.16 µM, first compound 0.1 µM
[27] = second compound 3.16 µM, first compound 0.316 µM
[28] = second compound 3.16 µM, first compound 1 µM
[29] = second compound 3.16 µM, first compound 3.16 µM
[30] = second compound 3.16 µM, first compound 10 µM
[31] = second compound 10 µM, first compound 0.0316 µM
[32] = second compound 10 µM, first compound 0.1 µM
[33] = second compound 10 µM, first compound 0.316 µM
[34] = second compound 10 µM, first compound 1 µM
[35] = second compound 10 µM, first compound 3.16 µM
[36] = second compound 10 µM, first compound 10 µM
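Further: spheroids exposed to the agents for one week.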
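Wherever viability, T/C is given: 100% = DMSO vehicle control wells.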

CC1COCCN1c1cc(C2(O)CC3CCC(C2)O3)c2cnn(-c3ccn[nH]3)c2n1 (stereo not drawn) + Cc1cccc(N(C)C(=O)C2C(O)CCN2c2nc(C)cc(C(F)(F)F)c2C#N)c1
6.24: pIC50 (second compound 0.316 µM)
6.41: pIC50 (second compound 3.16 µM)
active: viability, T/C [6] 8.67% | viability, T/C [12] 10.8% | viability, T/C [24] 10.4% | viability, T/C [30] 9.75% | viability, T/C [35] 8.71% | viability, T/C [36] 9.69%
6.34: pIC50 (second compound 0.1 µM)
6.29: pIC50 (second compound 1 µM)
6.36: pIC50 (second compound 0.0316 µM)
inactive: viability, T/C [1] 104% | viability, T/C [2] 77% | viability, T/C [3] 61.6% | viability, T/C [4] 33.6% | viability, T/C [5] 10.6% | viability, T/C [7] 109% | viability, T/C [8] 93.7% | viability, T/C [9] 63.9% | viability, T/C [10] 23.2% | viability, T/C [11] 10.3% | viability, T/C [13] 110% | viability, T/C [14] 101% | viability, T/C [15] 75.5% | viability, T/C [16] 27.5% | viability, T/C [17] 11.6% | viability, T/C [18] 10.9% | viability, T/C [19] 97.3% | viability, T/C [20] 89.5% | viability, T/C [21] 67.9% | viability, T/C [22] 25.8% | viability, T/C [23] 9.46% | viability, T/C [25] 101% | viability, T/C [26] 89.2% | viability, T/C [27] 57.1% | viability, T/C [28] 20.7% | viability, T/C [29] 8.74% | viability, T/C [31] 101% | viability, T/C [32] 64.6% | viability, T/C [33] 32.5% | viability, T/C [34] 10.3%
6.78: pIC50 (second compound 10 µM)

CCc1cc2c(N3CCc4c(cc(Cn5ccnc5)cc4-c4cn(C)nc4C(F)(F)F)C3=O)cc(C)nc2c(OC)n1 + Cc1cccc(N(C)C(=O)C2C(O)CCN2c2nc(C)cc(C(F)(F)F)c2C#N)c1
< 5.00: pIC50 (second compound 0.0316 µM) | pIC50 (second compound 0.1 µM) | pIC50 (second compound 0.316 µM) | pIC50 (second compound 1 µM) | pIC50 (second compound 3.16 µM) | pIC50 (second compound 10 µM)
inactive: viability, T/C [1] 101% | viability, T/C [2] 105% | viability, T/C [3] 109% | viability, T/C [4] 107% | viability, T/C [5] 102% | viability, T/C [6] 91.7% | viability, T/C [7] 109% | viability, T/C [8] 101% | viability, T/C [9] 108% | viability, T/C [10] 105% | viability, T/C [11] 106% | viability, T/C [12] 97% | viability, T/C [13] 103% | viability, T/C [14] 103% | viability, T/C [15] 107% | viability, T/C [16] 108% | viability, T/C [17] 110% | viability, T/C [18] 98.7% | viability, T/C [19] 102% | viability, T/C [20] 103% | viability, T/C [21] 107% | viability, T/C [22] 105% | viability, T/C [23] 108% | viability, T/C [24] 101% | viability, T/C [25] 103% | viability, T/C [26] 104% | viability, T/C [27] 106% | viability, T/C [28] 105% | viability, T/C [29] 104% | viability, T/C [30] 99.7% | viability, T/C [31] 93.4% | viability, T/C [32] 104% | viability, T/C [33] 105% | viability, T/C [34] 102% | viability, T/C [35] 107% | viability, T/C [36] 98.2%

CCc1cc2c(N3CCc4c(cc(Cn5ccnc5)cc4-c4cn(C)nc4C(F)(F)F)C3=O)ccnc2c(OC)n1 + Cc1cccc(N(C)C(=O)C2C(O)CCN2c2nc(C)cc(C(F)(F)F)c2C#N)c1
< 5.00: pIC50 (second compound 0.0316 µM) | pIC50 (second compound 0.1 µM) | pIC50 (second compound 0.316 µM) | pIC50 (second compound 1 µM) | pIC50 (second compound 3.16 µM) | pIC50 (second compound 10 µM)
inactive: viability, T/C [1] 105% | viability, T/C [2] 107% | viability, T/C [3] 107% | viability, T/C [4] 108% | viability, T/C [5] 110% | viability, T/C [6] 94.1% | viability, T/C [7] 107% | viability, T/C [8] 106% | viability, T/C [9] 104% | viability, T/C [10] 107% | viability, T/C [11] 105% | viability, T/C [12] 99% | viability, T/C [13] 104% | viability, T/C [14] 100% | viability, T/C [15] 107% | viability, T/C [16] 110% | viability, T/C [17] 105% | viability, T/C [18] 99.5% | viability, T/C [19] 101% | viability, T/C [20] 99.4% | viability, T/C [21] 108% | viability, T/C [22] 109% | viability, T/C [23] 102% | viability, T/C [24] 107% | viability, T/C [25] 102% | viability, T/C [26] 107% | viability, T/C [27] 106% | viability, T/C [28] 106% | viability, T/C [29] 107% | viability, T/C [30] 98.4% | viability, T/C [31] 104% | viability, T/C [32] 98.4% | viability, T/C [33] 98.8% | viability, T/C [34] 102% | viability, T/C [35] 98.5% | viability, T/C [36] 102%

COc1cc2cc(C(=O)CCC(=O)O)sc2cc1OC + Cc1cccc(N(C)C(=O)C2C(O)CCN2c2nc(C)cc(C(F)(F)F)c2C#N)c1
inactive: viability, T/C [1] 101% | viability, T/C [2] 103% | viability, T/C [3] 101% | viability, T/C [4] 103% | viability, T/C [5] 105% | viability, T/C [6] 83.8% | viability, T/C [7] 105% | viability, T/C [8] 105% | viability, T/C [9] 97% | viability, T/C [10] 102% | viability, T/C [11] 107% | viability, T/C [12] 90.6% | viability, T/C [13] 102% | viability, T/C [14] 105% | viability, T/C [15] 101% | viability, T/C [16] 104% | viability, T/C [17] 108% | viability, T/C [18] 91.3% | viability, T/C [19] 96.8% | viability, T/C [20] 106% | viability, T/C [21] 105% | viability, T/C [22] 104% | viability, T/C [23] 102% | viability, T/C [24] 92.3% | viability, T/C [25] 102% | viability, T/C [26] 101% | viability, T/C [27] 105% | viability, T/C [28] 103% | viability, T/C [29] 110% | viability, T/C [30] 90.3% | viability, T/C [31] 104% | viability, T/C [32] 98% | viability, T/C [33] 101% | viability, T/C [34] 99.6% | viability, T/C [35] 109% | viability, T/C [36] 93.7%
< 5.00: pIC50 (second compound 0.0316 µM) | pIC50 (second compound 0.1 µM) | pIC50 (second compound 0.316 µM) | pIC50 (second compound 1 µM) | pIC50 (second compound 3.16 µM) | pIC50 (second compound 10 µM)
